For assay [1], the system named is primary human mesenchymal stem cells (hMSCs). Description: Induction of chondrogenesis in human mesenchymal stem cells (nodule staining with Rhodamine B / Nile Red). Type of assay: cell-based. The conditions noted are these: for Emax: TGF-β3 (10 ng/mL) as positive control, read-out: Max. Activity as % TGF-β3 activity; for EC50: concentration required to induce 50% levels of chondrogenesis vs TGF-β3, read-out: Conc (nM) of 50% TGF-β3 activity. The essentials:
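Primary hMSCs (passage 3–6) in incomplete chondrogenic induction medium were exposed 6 days at 37° C to compound (1:3 dilutions, 2700–10 nM in 96-well or 5000–2.2 nM in 384-well; 0.03% DMSO). Nodules stained with Rhodamine B/Nile Red were imaged; area normalized to DMSO wells for EC50, maximal activity and dose at maximum.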

Assay [2] has as its system primary human fibroblasts derived from IPF patients (LL29 cells) treated with TGF-β1. Description: Inhibition of the fibrotic process: αSMA staining in TGF-β1-treated LL29 fibroblasts. Type of assay: cell-based. The conditions noted are these: Fibroblast; for EC50: 96 h, LL29 fibroblasts treated with TGF-β1 (20 ng/mL), 4 days, Table 4; for inhibition at 10 µM: LL29 fibroblasts treated with TGF-β1, Table 4, read-out: percent inhibition at 10 μM (given in parentheses for EC50 >10 μM). The essentials:
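EC50 from triplicate-well dose-response fits of % αSMA-positive cells, normalized to TGF-β1-stimulated DMSO controls, with SYTOX-positive dead cells excluded. LL29 IPF fibroblasts received compound at 10 μM–1.87 nM (0.1% DMSO) plus 20 ng/mL TGF-β1 for 4 days in 1% FBS medium; above 10 μM, % inhibition at 10 μM reported.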

For `CC(C)Nc1cncc(-c2ccc3[nH]nc(-c4nc5c(-c6cc(F)cc(NCCN(C)C)c6)cccc5[nH]4)c3n2)c1` [Compound 460, N^1-(3-Fluoro-5-(2-(5-(5-(isopropylamino)pyridin-3-yl)-1H-pyrazolo[4,3-b]pyridin-3-yl)-1H-benzo[d]imidazol-4-yl)phenyl)-N^2,N^2-dimethylethane-1,2-diamine], in assay [1], the Emax is 62% and the EC50 amounted to 10 nM. In assay [2], this compound gave an EC50 of 1440 nM.

One may read the inhibition as the relative decrease from the control value, in per cent. As to `CCNCc1cncc(-c2ccc3[nH]nc(-c4nc5c(-c6ccoc6)cccc5[nH]4)c3n2)c1` [Compound 314, N-((5-(3-(4-(Furan-3-yl)-1H-benzo[d]imidazol-2-yl)-1H-pyrazolo[4,3-b]pyridin-5-yl)pyridin-3-yl)methyl)ethanamine], the Emax in assay [1] is 32%. Further, in assay [2], the inhibition at 10 µM was 0% and the EC50 was greater than 10000 nM.

With `NC1CN(c2cncc(-c3ccc4[nH]nc(-c5nc6c(-c7cccc(F)c7)cccc6[nH]5)c4n3)n2)C1` [Compound 510, 1-(6-(3-(4-(3-Fluorophenyl)-1H-benzo[d]imidazol-2-yl)-1H-pyrazolo[4,3-b]pyridin-5-yl)pyrazin-2-yl)azetidin-3-amine], in assay [1], the Emax turned out to be 53% and the EC50 turned out to be 7 nM. Moreover, in assay [2], the EC50 was found to be 4320 nM.

Take `CCC(=O)Nc1cncc(-c2ccc3[nH]nc(-c4nc5c(-c6cccc(F)c6)cccc5[nH]4)c3n2)c1` [Compound 1, N-(5-(3-(4-(3-Fluorophenyl)-1H-benzo[d]imidazol-2-yl)-1H-pyrazolo[4,3-b]pyridin-5-yl)pyridin-3-yl)propionamide]: in assay [1], the Emax was found to be 99%. Further, in assay [2], the EC50 stood at 1180 nM.

As for `Cc1cn(-c2cccc3[nH]c(-c4n[nH]c5ccc(-c6cncc(CN7CCCC7)c6)nc45)nc23)cn1` [Compound 210, 3-(4-(4-Methyl-1H-imidazol-1-yl)-1H-benzo[d]imidazol-2-yl)-5-(5-(pyrrolidin-1-ylmethyl)pyridin-3-yl)-1H-pyrazolo[4,3-b]pyridine], in assay [1], the Emax is 193% and the EC50 was determined as 7 nM. Further, in assay [2], the inhibition at 10 µM is 30.4% and the EC50 is greater than 10000 nM.

Turning to `CC(C)CC(=O)Nc1cncc(-c2ccc3[nH]nc(-c4nc5c(-c6cccc(F)c6)cccc5[nH]4)c3n2)c1` [Compound 2, N-(5-(3-(4-(3-Fluorophenyl)-1H-benzo[d]imidazol-2-yl)-1H-pyrazolo[4,3-b]pyridin-5-yl)pyridin-3-yl)-3-methylbutanamide], in assay [1], the Emax worked out at 57% and the EC50 was found to be 21 nM. Besides, in assay [2], the EC50 is 9860 nM.

Consider `Cc1cn(-c2cccc3[nH]c(-c4n[nH]c5ccc(-c6cncc(NC(=O)CC(C)C)c6)nc45)nc23)cn1` [Compound 198, 3-Methyl-N-(5-(3-(4-(4-methyl-1H-imidazol-1-yl)-1H-benzo[d]imidazol-2-yl)-1H-pyrazolo[4,3-b]pyridin-5-yl)pyridin-3-yl)butanamide], for which, in assay [1], the Emax came out at 44%. This compound returned an EC50 in assay [2] of 1890 nM.

In the case of `Fc1cccc(-c2cccc3[nH]c(-c4n[nH]c5ccc(-c6cncc(OC7CCNCC7)c6)nc45)nc23)c1` [Compound 512, 3-(4-(3-Fluorophenyl)-1H-benzo[d]imidazol-2-yl)-5-(5-(piperidin-4-yloxy)pyridin-3-yl)-1H-pyrazolo[4,3-b]pyridine], in assay [1], the Emax worked out at 75% and the EC50 stood at 7 nM. This compound also yielded an EC50 in assay [2] of 1540 nM.

With `CN(C)c1cncc(-c2ccc3[nH]nc(-c4nc5c(-c6cccs6)cccc5[nH]4)c3n2)c1` [Compound 343, N,N-Dimethyl-5-(3-(4-(thiophen-2-yl)-1H-benzo[d]imidazol-2-yl)-1H-pyrazolo[4,3-b]pyridin-5-yl)pyridin-3-amine], in assay [1], the Emax is 83%. The results for the EC50 in assay [1] and in assay [2] were 100 nM and 1180 nM, respectively.

`CN(C)Cc1cncc(-c2ccc3[nH]nc(-c4nc5c(-c6cccs6)cccc5[nH]4)c3n2)c1` [Compound 349, N,N-dimethyl-1-(5-(3-(4-(thiophen-2-yl)-1H-benzo[d]imidazol-2-yl)-1H-pyrazolo[4,3-b]pyridin-5-yl)pyridin-3-yl)methanamine]: in assay [1], the Emax amounted to 51% and the EC50 amounted to 10 nM. Moreover, the EC50 in assay [2] worked out at 2500 nM.

For the compound `Fc1cccc(-c2cccc3[nH]c(-c4n[nH]c5ccc(-c6ccncc6)nc45)nc23)c1` [Compound 18, 3-(4-(3-Fluorophenyl)-1H-benzo[d]imidazol-2-yl)-5-(pyridin-4-yl)-1H-pyrazolo[4,3-b]pyridine], in assay [1], the Emax stood at 39%. Also, in assay [2], the EC50 was 231 nM.

Take `Oc1cncc(-c2ccc3[nH]nc(-c4nc5c(-c6cccc(F)c6)cccc5[nH]4)c3n2)c1` [Compound 517, 5-(3-(4-(3-Fluorophenyl)-1H-benzo[d]imidazol-2-yl)-1H-pyrazolo[4,3-b]pyridin-5-yl)pyridin-3-ol]: the Emax in assay [1] came to 45%. In addition, the EC50 in assay [2] worked out at 1540 nM.

In the case of `CCCCC(=O)Nc1cncc(-c2ccc3[nH]nc(-c4nc5c(-c6cc(F)cc(NCCN(C)C)c6)cccc5[nH]4)c3n2)c1` [Compound 467, N-(5-(3-(4-(3-((2-(Dimethylamino)ethyl)amino)-5-fluorophenyl)-1H-benzo [d]imidazol-2-yl)-1H-pyrazolo[4,3-b]pyridin-5-yl)pyridin-3-yl)pentanamide], the Emax in assay [1] is 36%. Besides, the EC50 in assay [2] was 1180 nM.

Turning to `CCC(=O)Nc1cncc(-c2ccc3[nH]nc(-c4nc5c(-c6cccs6)cccc5[nH]4)c3n2)c1` [Compound 337, N-(5-(3-(4-(Thiophen-2-yl)-1H-benzo[d]imidazol-2-yl)-1H-pyrazolo[4,3-b]pyridin-5-yl)pyridin-3-yl)propionamide], in assay [1], the Emax amounted to 57%. In assay [2], this compound yielded an EC50 of 680 nM.

With `Cc1ccc(-c2cccc3[nH]c(-c4n[nH]c5ccc(-c6cncc(NC(=O)C(C)C)c6)nc45)nc23)s1` [Compound 401, N-(5-(3-(4-(5-Methylthiophen-2-yl)-1H-benzo[d]imidazol-2-yl)-1H-pyrazolo [4,3-b]pyridin-5-yl)pyridin-3-yl)isobutyramide], in assay [1], the Emax was 124% and the EC50 was found to be 300 nM. For the same compound, the EC50 in assay [2] amounted to 673 nM.

For the compound `CCCC(=O)Nc1cncc(-c2ccc3[nH]nc(-c4nc5c(-c6cc(F)cc(CNS(C)(=O)=O)c6)cccc5[nH]4)c3n2)c1` [Compound 493, N-(5-(3-(4-(3-Fluoro-5-(methylsulfonamidomethyl)phenyl)-1H-benzo[d]imidazol-2-yl)-1H-pyrazolo[4,3-b]pyridin-5-yl)pyridin-3-yl)butyramide], the Emax in assay [1] was 100%. Besides, the EC50 in assay [1] turned out to be 900 nM; in assay [2] it was 2620 nM.

In the case of `Cc1cn(-c2cccc3[nH]c(-c4n[nH]c5ccc(-c6cncc(NC(=O)C7CCC7)c6)nc45)nc23)cn1` [Compound 217, N-(5-(3-(4-(4-Methyl-1H-imidazol-1-yl)-1H-benzo[d]imidazol-2-yl)-1H-pyrazolo[4,3-b]pyridin-5-yl)pyridin-3-yl)cyclobutanecarboxamide], the Emax in assay [1] is 32%. Besides, in assay [2], the inhibition at 10 µM worked out at 0% and the EC50 is greater than 10000 nM.

Consider `CN(C)Cc1cncc(-c2ccc3[nH]nc(-c4nc5c(-c6cccc(F)c6)cccc5[nH]4)c3n2)c1` [Compound 13, 1-(5-(3-(4-(3-Fluorophenyl)-1H-benzo[d]imidazol-2-yl)-1H-pyrazolo[4,3-b]pyridin-5-yl)pyridin-3-yl)-N,N-dimethylmethanamine], for which, in assay [1], the Emax turned out to be 85% and the EC50 turned out to be 30 nM. The same compound came in with an EC50 in assay [2] of 616 nM.

Take `CN(C)CCOc1cncc(-c2ccc3[nH]nc(-c4nc5c(-c6cccc(F)c6)cccc5[nH]4)c3n2)c1` [Compound 515, 2-((5-(3-(4-(3-Fluorophenyl)-1H-benzo[d]imidazol-2-yl)-1H-pyrazolo[4,3-b]pyridin-5-yl)pyridin-3-yl)oxy)-N,N-dimethylethan-1-amine]: in assay [1], the Emax is 55% and the EC50 amounted to 2 nM. This compound also yielded an EC50 in assay [2] of 2540 nM.

`Cc1ccc(-c2cccc3[nH]c(-c4n[nH]c5ccc(-c6cncc(N)c6)nc45)nc23)s1` [Compound 395, 5-(3-(4-(5-Methylthiophen-2-yl)-1H-benzo[d]imidazol-2-yl)-1H-pyrazolo [4,3-b]pyridin-5-yl)pyridin-3-amine]: in assay [1], the Emax worked out at 88% and the EC50 is 10 nM. In assay [2], this compound returned an EC50 of 186 nM.

For the compound `Cc1ncc(-c2ccc3[nH]nc(-c4nc5c(-c6cccc(F)c6)cccc5[nH]4)c3n2)n1C` [Compound 509, 5-(1,2-Dimethyl-1H-imidazol-5-yl)-3-(4-(3-fluorophenyl)-1H-benzo[d]imidazol-2-yl)-1H-pyrazolo[4,3-b]pyridine], in assay [1], the Emax worked out at 112% and the EC50 was 10 nM. In assay [2], the EC50 came out at 175 nM.

As for `Cc1ccncc1-c1ccc2[nH]nc(-c3nc4c(-c5cc(F)cc(CNS(C)(=O)=O)c5)cccc4[nH]3)c2n1` [Compound 481, N-(3-Fluoro-5-(2-(5-(4-methylpyridin-3-yl)-1H-pyrazolo[4,3-b]pyridin-3-yl)-1H-benzo[d]imidazol-4-yl)benzyl)methanesulfonamide], the Emax in assay [1] came to 36%. In assay [2], this compound showed an EC50 of 2110 nM.

Values taken from US10392383B2, “3-(1H-benzo[d]imidazol-2-yl)-1H-pyrazolo[4,3-b]pyridines and therapeutic uses thereof” (Samumed, LLC, priority 2015, dated 2019).
